From PMC9596378, “Discovery and molecular basis of subtype-selective cyclophilin inhibitors” (Nature Chemical Biology, 2022)
“And” between values parts separate entries of the source, which are not always exact repeats. Equal entries are not always repeated. Where two headings read alike, the source gives them in different places.

Assays:
Assay in all cases: Chymotrypsin coupled prolyl-isomerase assay
[1] = molecular target: T1, PPIL1 (Homo sapiens, UniProt Q9Y3C6); type: biochemical; settings: for PPIL1 prolyl-isomerase assay raw dose-response value: Fig. 3b source data, replicates
T1 construct: PPIL1 (UniProtKB Entry Q9Y3C6: residues 1–166); made in house; host or cells: E. coli BL21(DE3)
T1 sequence (Q9Y3C6 1-166): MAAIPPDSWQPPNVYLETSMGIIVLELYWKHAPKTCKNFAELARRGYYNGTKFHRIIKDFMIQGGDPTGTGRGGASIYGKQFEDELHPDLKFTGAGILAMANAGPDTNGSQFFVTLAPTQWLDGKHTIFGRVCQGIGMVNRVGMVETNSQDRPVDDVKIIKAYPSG
Experimental: Adapting a previously described protocol[51], with an Agilent Bravo Velocity 11 with a 384ST head, 90 µL assay buffer (25 mM HEPES pH 7.3, 100 mM NaCl, 0.01% Triton X-100) containing 5.28 nM cyclophilin was added into a flat, clear-bottom, black 384-well plate pre-chilled in a Corning CoolBox at 2–3 °C. Five microliters of compound pre-dissolved in 5% DMSO/assay buffer was then added to appropriate wells and incubated at 2–3 °C for 5 min. Five microliters of 0.5 mM α-chymotrypsin from bovine pancreas (Type II, lyophilized powder, Millipore-Sigma) in 20% 1 mM HCl/Assay Buffer was then added to each well and incubated at 2–3 °C for 5 min. […] Using the internal liquid handling system of the FLIPR, 1 µL 0.5 mM Suc-AAPF-AMC (Chymotrypsin Substrate II, Millipore-Sigma) dissolved in 0.55 M LiCl/2,2,2-trifluoroethanol was added to each well, which was then mixed for 5 s, followed by immediate fluorescence measurements every 1 s for 330 s using a 360–380 nm excitation LED module and a 400–460 nm emission filter. Final concentrations of the plate include 5 nM cyclophilin, 0.25% DMSO, 25 µM α-chymotrypsin, 5 µM Suc-AAPF-AMC. Raw fluorescence data was analyzed by non-linear regression analysis with Prism v.9 by fitting one-phase association curves to each well. Analyses were halted after the calculated maximum fluorescent value owing to observed fluorescent bleaching during the sustained fluorescent plateau. Rate constants calculated for each well (s^−1) were then normalized to substrate only (no prolyl-isomerase) and enzyme + substrate only controls. IC50 values were calculated as the value at which 50% inhibition was achieved on the non-linear regression fitted curve of each compound.

[2] = molecular target: CypD (Homo sapiens, UniProt P30405); settings: for CypD prolyl-isomerase assay raw dose-response value: Fig. 3b source data, replicates
Sequence of CypD (P30405 45-207): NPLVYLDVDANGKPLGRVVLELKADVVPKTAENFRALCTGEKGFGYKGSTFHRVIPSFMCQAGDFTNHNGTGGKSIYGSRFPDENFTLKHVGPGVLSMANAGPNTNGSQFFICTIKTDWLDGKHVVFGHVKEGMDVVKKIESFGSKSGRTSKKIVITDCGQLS

[3] = molecular target: T2, CypD K118A (Homo sapiens, UniProt P30405, K118A); type: biochemical; settings: prolyl-isomerase inhibition
T2 construct: made in house; host or cells: E. coli BL21(DE3)
T2 sequence (P30405 45-207 K118A): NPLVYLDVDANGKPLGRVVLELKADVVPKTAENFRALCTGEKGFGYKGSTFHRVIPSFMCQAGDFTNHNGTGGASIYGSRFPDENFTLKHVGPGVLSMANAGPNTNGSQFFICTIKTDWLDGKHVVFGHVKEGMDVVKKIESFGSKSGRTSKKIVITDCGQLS
In short: (§1)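 Chymotrypsin-coupled cis–trans isomerization of Suc-AAPF-AMC (5 µM) catalysed by 5 nM cyclophilin, run cold (2–3 °C) at pH 7.3 with 5 min compound preincubation.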

[4] = molecular target: T3, CypD K118E (Homo sapiens, UniProt P30405, K118E); type: biochemical; settings: prolyl-isomerase inhibition
T3 construct: made in house; host or cells: E. coli BL21(DE3)
T3 sequence (P30405 45-207 K118E): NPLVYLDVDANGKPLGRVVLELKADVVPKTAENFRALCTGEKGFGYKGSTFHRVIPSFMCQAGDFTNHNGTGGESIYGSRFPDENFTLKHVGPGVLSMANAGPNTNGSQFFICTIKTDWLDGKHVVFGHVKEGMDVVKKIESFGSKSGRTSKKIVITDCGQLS
In short: as §1

[5] = molecular target: T4, CypD S123E (Homo sapiens, UniProt P30405, S123E); type: biochemical; settings: prolyl-isomerase inhibition
T4 construct: made in house; host or cells: E. coli BL21(DE3)
T4 sequence (P30405 45-207 S123E): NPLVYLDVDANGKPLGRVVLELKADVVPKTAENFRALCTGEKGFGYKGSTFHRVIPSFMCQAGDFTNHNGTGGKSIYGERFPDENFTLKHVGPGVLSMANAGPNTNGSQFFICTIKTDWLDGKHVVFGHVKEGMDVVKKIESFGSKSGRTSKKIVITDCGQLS
In short: as §1

[6] = molecular target: T5, CypD R124A (Homo sapiens, UniProt P30405, R124A); type: biochemical; settings: mutant CypD R124A; read-out: Mutant Cyclophilin Prolyl Isomerase Inhibition IC50 Values, CypD R124A
T5 construct: made in house; host or cells: E. coli BL21(DE3)
T5 sequence (P30405 45-207 R124A): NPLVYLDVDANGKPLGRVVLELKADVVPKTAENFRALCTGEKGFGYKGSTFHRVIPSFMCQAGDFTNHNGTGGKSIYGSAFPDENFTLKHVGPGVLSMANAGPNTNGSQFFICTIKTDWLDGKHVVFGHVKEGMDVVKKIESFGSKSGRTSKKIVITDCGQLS
In short: as §1

[7] = molecular target: T6, CypA E81S/K82R (Homo sapiens, UniProt P62937, E81S/K82R); type: biochemical
T6 construct: Lane 12- SNA-CypA E81S/K82R (1-165);; His6 tag with TEV site (2BT vector); SNA remnant stays on the N-terminus (N, cleaved yes); made in house; host or cells: E. coli BL21(DE3)
T6 sequence (P62937 whole entry E81S/K82R): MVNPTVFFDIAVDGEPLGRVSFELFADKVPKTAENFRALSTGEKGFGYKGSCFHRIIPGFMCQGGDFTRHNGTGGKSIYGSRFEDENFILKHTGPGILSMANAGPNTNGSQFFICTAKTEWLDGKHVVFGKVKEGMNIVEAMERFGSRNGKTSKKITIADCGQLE
In short: as §1

[8] = molecular target: T7, CypD R124K (Homo sapiens, UniProt P30405, R124K); type: biochemical; settings: mutant CypD R124K; read-out: Mutant Cyclophilin Prolyl Isomerase Inhibition IC50 Values, CypD R124K
T7 construct: made in house; host or cells: E. coli BL21(DE3)
T7 sequence (P30405 45-207 R124K): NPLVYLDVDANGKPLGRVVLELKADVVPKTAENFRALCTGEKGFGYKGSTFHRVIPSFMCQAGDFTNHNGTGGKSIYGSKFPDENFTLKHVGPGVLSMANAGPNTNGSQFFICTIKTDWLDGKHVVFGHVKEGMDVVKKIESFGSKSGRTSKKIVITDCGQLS
In short: as §1

[9] = molecular target: T8, PPWD1 (Homo sapiens, UniProt Q96BP3); type: biochemical; settings: for PPWD1 prolyl-isomerase assay raw dose-response value: Fig. 3b source data, replicates
T8 construct: PPWD1 (UniProtKB Entry Q96BP3: residues 473–646); host or cells: E. coli BL21(DE3)
T8 sequence (Q96BP3 473-646): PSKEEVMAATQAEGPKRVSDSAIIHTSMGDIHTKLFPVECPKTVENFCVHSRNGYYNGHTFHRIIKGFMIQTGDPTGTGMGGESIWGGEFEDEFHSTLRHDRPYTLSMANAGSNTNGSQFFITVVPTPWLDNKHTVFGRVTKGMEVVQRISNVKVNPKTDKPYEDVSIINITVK
Experimental: Five microliters of compound pre-dissolved in 5% DMSO/assay buffer was then added to appropriate wells and incubated at 2–3 °C for 5 min. Five microliters of 0.5 mM α-chymotrypsin from bovine pancreas (Type II, lyophilized powder, Millipore-Sigma) in 20% 1 mM HCl/Assay Buffer was then added to each well and incubated at 2–3 °C for 5 min. The plate was then quickly transferred to a FLIPR Tetra High-Throughput Cellular Screening System (Molecular Devices). Using the internal liquid handling system of the FLIPR, 1 µL 0.5 mM Suc-AAPF-AMC (Chymotrypsin Substrate II, Millipore-Sigma) dissolved in 0.55 M LiCl/2,2,2-trifluoroethanol was added to each well, which was then mixed for 5 s, followed by immediate fluorescence measurements every 1 s for 330 s using a 360–380 nm excitation LED module and a 400–460 nm emission filter. […] Raw fluorescence data was analyzed by non-linear regression analysis with Prism v.9 by fitting one-phase association curves to each well. Analyses were halted after the calculated maximum fluorescent value owing to observed fluorescent bleaching during the sustained fluorescent plateau. Rate constants calculated for each well (s^−1) were then normalized to substrate only (no prolyl-isomerase) and enzyme + substrate only controls.

[10] = wild-type PPIL1, read-out: Wild-Type Cyclophilin Prolyl Isomerase Inhibition IC50 Values, PPIL1
[11] = wild-type PPWD1, read-out: Wild-Type Cyclophilin Prolyl Isomerase Inhibition IC50 Values, PPWD1

NCCOCCNC(=O)[C@@H]1CCNC(=O)/C=C/C(=O)N2CCC[C@](Cc3ccccc3)(C2)C(=O)N[C@@H](Cc2ccc(-c3ccc(CCC(=O)O)cc3)cc2)C(=O)NCc2ccccc2CC(=O)N1 [Compound B23]
PPIL1 prolyl-isomerase assay raw dose-response value ([1]; Dose 0.0201875 µM): 0.07231 and 0.05967 and 0.06308
PPIL1 prolyl-isomerase assay raw dose-response value ([1]; Dose 0.0605624 µM): 0.05364 and 0.0572 and 0.05937
PPIL1 prolyl-isomerase assay raw dose-response value ([1]; Dose 0.181687 µM): 0.04207 and 0.04374 and 0.05902
PPIL1 prolyl-isomerase assay raw dose-response value ([1]; Dose 0.545062 µM): 0.02667 and 0.03161 and 0.02807
PPIL1 prolyl-isomerase assay raw dose-response value ([1]; Dose 1.63519 µM): 0.01818 and 0.02247 and 0.01913
PPIL1 prolyl-isomerase assay raw dose-response value ([1]; Dose 4.90556 µM): 0.01354 and 0.01399 and 0.01299
PPIL1 prolyl-isomerase assay raw dose-response value ([1]; Dose 14.7167 µM): 0.01244 and 0.01258 and 0.01177
PPIL1 prolyl-isomerase assay raw dose-response value ([1]; Dose 44.15 µM): 0.01521 and 0.01086 and 0.01169
IC50 [1, 10]: 130 nM
IC50 [2]: 7.8 nM
CypD prolyl-isomerase assay raw dose-response value ([2]; Dose 0.000457247 µM): 0.08239 and 0.08493 and 0.09684
CypD prolyl-isomerase assay raw dose-response value ([2]; Dose 0.00137174 µM): 0.07973 and 0.07546 and 0.07833
CypD prolyl-isomerase assay raw dose-response value ([2]; Dose 0.00411523 µM): 0.06213 and 0.06183 and 0.0629
CypD prolyl-isomerase assay raw dose-response value ([2]; Dose 0.0123457 µM): 0.03857 and 0.03915 and 0.03469
CypD prolyl-isomerase assay raw dose-response value ([2]; Dose 0.037037 µM): 0.02379 and 0.02491 and 0.0225
CypD prolyl-isomerase assay raw dose-response value ([2]; Dose 0.111111 µM): 0.01572 and 0.01536 and 0.01393
CypD prolyl-isomerase assay raw dose-response value ([2]; Dose 0.333333 µM): 0.01408 and 0.01283 and 0.01168
CypD prolyl-isomerase assay raw dose-response value ([2]; Dose 1 µM): 0.01156 and 0.01128 and 0.01193
selectivity for CypD over CypE and CypB ([2]; prolyl-isomerase IC50): ~ 3 fold
IC50 [3]: 70 nM
IC50 [4]: 180 nM
IC50 [5]: 23 nM
IC50 [6]: 3 nM
IC50 ([7]; mutant CypA E81S/K82R, read-out: Mutant Cyclophilin Prolyl Isomerase Inhibition IC50 Values, CypA E81S/K82R): 23 nM
IC50 [8]: 2.9 nM
PPWD1 prolyl-isomerase assay raw dose-response value ([9]; Dose 0.0201875 µM): 0.05033 and 0.05427 and 0.05661
PPWD1 prolyl-isomerase assay raw dose-response value ([9]; Dose 0.0605624 µM): 0.05286 and 0.05252 and 0.05358
PPWD1 prolyl-isomerase assay raw dose-response value ([9]; Dose 0.181687 µM): 0.05234 and 0.04225 and 0.05023
PPWD1 prolyl-isomerase assay raw dose-response value ([9]; Dose 0.545062 µM): 0.05186 and 0.04473 and 0.04345
PPWD1 prolyl-isomerase assay raw dose-response value ([9]; Dose 1.63519 µM): 0.04986 and 0.04682 and 0.05314
PPWD1 prolyl-isomerase assay raw dose-response value ([9]; Dose 4.90556 µM): 0.03903 and 0.03772 and 0.04075
PPWD1 prolyl-isomerase assay raw dose-response value ([9]; Dose 14.7167 µM): 0.03486 and 0.03306 and 0.03245
PPWD1 prolyl-isomerase assay raw dose-response value ([9]; Dose 44.15 µM): 0.02892 and 0.02371 and 0.02381
IC50 [9, 11]: 11000 nM

NCCOCCNC(=O)[C@@H]1CCNC(=O)/C=C/C(=O)N2CCC[C@](Cc3ccccc3)(C2)C(=O)N[C@@H](Cc2ccc(-c3ccc(CC(C(=O)O)C(=O)O)cc3)cc2)C(=O)NCc2ccccc2CC(=O)N1 [Compound B52]
IC50 ([1]; Independent replicate 1, read-out: IC50 PPIL1): 5000 ± 2000 nM
IC50 ([1]; Independent replicate 2, read-out: IC50 PPIL1): 9000 ± 3000 nM
IC50 ([1]; Independent replicate 3, read-out: IC50 PPIL1): 6000 ± 2000 nM
IC50 ([1]; Independent replicate 4, read-out: IC50 PPIL1): 5000 ± 2000 nM
IC50 ([1]; prolyl-isomerase inhibition, 5 nM cyclophilin, read-out: IC50 PPIL1): 6000 ± 2000 nM
IC50 ([1]; prolyl-isomerase inhibition, read-out: IC50 PPIL1): 6000 nM
IC50 [1, 10]: 6000 nM
IC50 [2]: 10 ± 4 nM
IC50 ([2]; IC50 CypD, Independent replicate 1, mean±SEM of 3 technical replicates): 10 ± 2 nM
IC50 ([2]; IC50 CypD, Independent replicate 2): 11 ± 4 nM
IC50 ([2]; IC50 CypD, Independent replicate 3): 11 ± 5 nM
IC50 ([2]; IC50 CypD, Independent replicate 4): 10 ± 5 nM
IC50 ([2]; IC50 CypD, prolyl-isomerase inhibition): 10 nM
IC50 ([2]; Wild-Type Cyclophilin Prolyl Isomerase Inhibition IC50 Values, CypD, wild-type CypD): 10 nM
selectivity for CypD against the remaining six cyclophilins ([2]; prolyl-isomerase IC50): > 900 fold
selectivity for CypD over CypA ([2]; prolyl-isomerase IC50): > 100 fold and 100 fold
selectivity for CypD over CypA and PPIL1 ([2]; prolyl-isomerase IC50): 60- to 900 fold
selectivity for CypD over CypE and CypB ([2]; prolyl-isomerase IC50): 15- to 30 fold
IC50 ([2]; read-out: IC50 CypD, prolyl-isomerase inhibition, 5 nM cyclophilin, Suc-AAPF-AMC, mean±s.e.m. of 3 technical replicates (B52, B53, C3A wild-type: mean±s.d. of 4 independent replicates)): 10 nM
IC50 [3]: 73 nM
IC50 [4]: 300 nM
IC50 [5]: 240 nM
IC50 [6]: 17 nM
IC50 ([7]; prolyl-isomerase inhibition, read-out: IC50 CypA E81S/K82R): 27 nM
IC50 [8]: 20 nM
IC50 ([9]; Independent replicate 1, read-out: IC50 PPWD1): > 100000 nM
IC50 ([9]; Independent replicate 2, read-out: IC50 PPWD1): > 100000 nM
IC50 ([9]; Independent replicate 3, read-out: IC50 PPWD1): > 100000 nM
IC50 ([9]; Independent replicate 4, read-out: IC50 PPWD1): > 100000 nM
IC50 ([9]; prolyl-isomerase inhibition, 5 nM cyclophilin, read-out: IC50 PPWD1): > 100000 nM
IC50 ([9]; prolyl-isomerase inhibition, read-out: IC50 PPWD1): > 100000 nM
IC50 [9, 11]: > 100000 nM
